Results reported in PubChem BioAssay (NCI).
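Compound exposure: 48 hours, 5 concentrations, 96-well plates. TGI: total growth inhibition.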

Assays:
Assay in all cases: growth of human tumour cells (NCI), 48 h
[1] = test system: ACHN renal
[2] = test system: BT-549 breast
[3] = test system: CAKI-1 renal
[4] = test system: CCRF-CEM leukemia
[5] = test system: KM12 colon
[6] = test system: SF-295 CNS
[7] = test system: SF-539 CNS
[8] = test system: SK-MEL-5 melanoma
[9] = test system: U251 CNS
[10] = test system: UACC-62 melanoma

Compound: COc1cc(Nc2ccc3c(c2)CCC3)nc(OC)n1
- TGI [1]: 73.7 µM
- TGI [2]: > 100 µM
- TGI [3]: > 100 µM
- TGI [4]: > 100 µM
- TGI [5]: 91.9 µM
- TGI [6]: > 100 µM
- TGI [7]: > 100 µM
- TGI [8]: 62.3 µM
- TGI [9]: > 100 µM
- TGI [10]: > 100 µM

Compound: CC(C)N1CCN(c2ccc(OCC3COC(Cn4cncn4)(c4ccc(Cl)cc4Cl)O3)cc2)CC1 (stereo not given)
- TGI [1]: 47.1 µM
- TGI [2]: 30 µM
- TGI [3]: 40.3 µM
- TGI [4]: 32.5 µM
- TGI [5]: 28.8 µM
- TGI [6]: 26.6 µM
- TGI [7]: 27.3 µM
- TGI [8]: 4.92 µM
- TGI [9]: 26.7 µM
- TGI [10]: 5.66 µM

Compound: Clc1ccc(C=NC23CC4CC(CC(C4)C2)C3)c(Cl)c1
- TGI [1]: > 10 µM
- TGI [2]: > 10 µM
- TGI [3]: > 10 µM
- TGI [4]: > 10 µM
- TGI [5]: > 10 µM
- TGI [6]: > 10 µM
- TGI [7]: > 10 µM
- TGI [8]: > 10 µM
- TGI [9]: > 10 µM
- TGI [10]: > 10 µM

Compound: COc1ccc(C(=O)NCCN(C)C)c2nc3ccccc3cc12
- TGI [1]: 2.5 µM
- TGI [2]: 14.4 µM
- TGI [3]: 7.59 µM
- TGI [4]: 11.4 µM
- TGI [5]: 7.79 µM
- TGI [6]: 6.34 µM
- TGI [7]: 8.16 µM
- TGI [8]: 2.54 µM
- TGI [9]: 7.62 µM
- TGI [10]: 4.62 µM

Compound: Nc1ncnc2c1ccn2C/C=C/CO
- TGI [1]: > 100 µM
- TGI [2]: > 100 µM
- TGI [3]: > 100 µM
- TGI [4]: > 100 µM
- TGI [5]: > 100 µM
- TGI [6]: > 100 µM
- TGI [7]: > 100 µM
- TGI [8]: > 100 µM
- TGI [9]: > 100 µM
- TGI [10]: > 100 µM

Compound: CC(C)(C)OC(=O)NC(CSSCC(NC(=O)OC(C)(C)C)C(=O)O)C(=O)O (stereo not given)
- TGI [1]: > 100 µM
- TGI [2]: > 100 µM
- TGI [3]: > 100 µM
- TGI [4]: > 100 µM
- TGI [5]: > 100 µM
- TGI [6]: > 100 µM
- TGI [7]: > 100 µM
- TGI [8]: > 100 µM
- TGI [9]: > 100 µM
- TGI [10]: > 100 µM

Compound: CCCCOCCOC1=C(Cl)C(=O)c2c(O)ccc(O)c2C1=O
- TGI [1]: 1.1 µM
- TGI [2]: 0.341 µM
- TGI [3]: 1.36 µM
- TGI [4]: 0.242 µM
- TGI [5]: 3.37 µM
- TGI [6]: 2.91 µM
- TGI [7]: 2.44 µM
- TGI [8]: 1.98 µM
- TGI [9]: 3.55 µM
- TGI [10]: 2.64 µM

Compound: O=C(O)C(O)C(O)C(O)C(O)CO (stereo not given)
- TGI [1]: > 100 µM
- TGI [2]: > 100 µM
- TGI [3]: > 100 µM
- TGI [4]: > 100 µM
- TGI [5]: > 100 µM
- TGI [6]: > 100 µM
- TGI [7]: > 100 µM
- TGI [8]: > 100 µM
- TGI [9]: > 100 µM
- TGI [10]: > 100 µM

Compound: O=C(CN1C(=O)CC(c2ccccc2)(c2ccccc2)C1=O)N1CCN(CCO)CC1
- TGI [1]: > 100 µM
- TGI [2]: > 100 µM
- TGI [3]: > 100 µM
- TGI [4]: > 100 µM
- TGI [5]: > 100 µM
- TGI [6]: > 100 µM
- TGI [7]: > 100 µM
- TGI [8]: > 100 µM
- TGI [9]: > 100 µM
- TGI [10]: > 100 µM

Compound: CCOc1c(OC)cc(-c2nc3n(n2)C(=O)C(CC)S3)cc1OC (stereo not given)
- TGI [1]: > 10 µM
- TGI [2]: > 10 µM
- TGI [3]: > 10 µM
- TGI [4]: > 10 µM
- TGI [5]: > 10 µM
- TGI [6]: > 10 µM
- TGI [7]: > 10 µM
- TGI [8]: > 10 µM
- TGI [9]: > 10 µM
- TGI [10]: > 10 µM

Compound: CCN(CC)c1ccc(/C=C/c2ccnc3ccccc23)cc1
- TGI [1]: > 100 µM
- TGI [2]: > 100 µM
- TGI [3]: > 100 µM
- TGI [4]: > 100 µM
- TGI [5]: > 100 µM
- TGI [6]: > 100 µM
- TGI [7]: > 100 µM
- TGI [8]: > 100 µM
- TGI [9]: > 100 µM
- TGI [10]: > 100 µM

Compound: CC1(C)C=CC(=O)C(O)C(C)(C)C1=O (stereo not given)
- TGI [1]: > 100 µM
- TGI [2]: > 100 µM
- TGI [3]: > 100 µM
- TGI [4]: 3.63 µM
- TGI [5]: > 100 µM
- TGI [6]: > 100 µM
- TGI [7]: > 100 µM
- TGI [8]: > 100 µM
- TGI [9]: > 100 µM
- TGI [10]: > 100 µM

Compound: CO/N=C(/C(=O)OC)c1ccccc1COc1ccccc1C(F)(F)F
- TGI [1]: > 100 µM
- TGI [2]: > 100 µM
- TGI [3]: > 100 µM
- TGI [4]: > 100 µM
- TGI [5]: > 100 µM
- TGI [6]: > 100 µM
- TGI [7]: 59.2 µM
- TGI [8]: 25.8 µM
- TGI [9]: > 100 µM
- TGI [10]: > 100 µM

Compound: O=C(c1ccccc1)c1ccc2c(c1)NC(=O)c1ccccc1SSc1ccccc1C(=O)N2
- TGI [1]: > 100 µM
- TGI [2]: > 100 µM
- TGI [3]: > 100 µM
- TGI [4]: > 100 µM
- TGI [5]: > 100 µM
- TGI [6]: > 100 µM
- TGI [7]: > 100 µM
- TGI [8]: > 100 µM
- TGI [9]: > 100 µM
- TGI [10]: > 100 µM

Compound: CSc1nc2c(c(N(C)C)n1)C(O)n1c(nc3ccccc31)S2 (stereo not given)
- TGI [1]: > 100 µM
- TGI [2]: > 100 µM
- TGI [3]: > 100 µM
- TGI [4]: > 100 µM
- TGI [5]: > 100 µM
- TGI [6]: > 100 µM
- TGI [7]: 77.2 µM
- TGI [8]: > 100 µM
- TGI [9]: > 55.5 µM
- TGI [10]: > 100 µM

Compound: Cc1ccc2c(c1)c1ccc3c(c1n2C)C(=O)C=CC3=O
- TGI [1]: 3.02 µM
- TGI [2]: 2.83 µM
- TGI [3]: 4.17 µM
- TGI [4]: 0.62 µM
- TGI [5]: > 10 µM
- TGI [6]: > 10 µM
- TGI [7]: 4.93 µM
- TGI [8]: > 10 µM
- TGI [9]: > 10 µM
- TGI [10]: 9.48 µM

Compound: CN1CCN(Cc2cc3c(nn2)-c2ccccc2C3=O)CC1
- TGI [1]: 62.4 µM
- TGI [2]: > 100 µM
- TGI [3]: > 100 µM
- TGI [4]: > 100 µM
- TGI [5]: > 100 µM
- TGI [6]: > 100 µM
- TGI [7]: > 100 µM
- TGI [8]: 35.1 µM
- TGI [9]: > 100 µM
- TGI [10]: > 100 µM

Compound: COc1ccc(-c2nc3ccccc3c(=S)n2OC(C)=O)cc1
- TGI [1]: > 25 µM
- TGI [2]: > 25 µM
- TGI [3]: > 25 µM
- TGI [4]: > 25 µM
- TGI [5]: > 25 µM
- TGI [6]: > 25 µM
- TGI [7]: > 25 µM
- TGI [8]: > 25 µM
- TGI [9]: > 25 µM
- TGI [10]: > 25 µM
